Series [1] deals with fetal globin (cultured erythroid progenitor cells). The following applies: cited from earlier work.
For a further series, the system named is anemic baboon. Nature of the series: In vivo reticulocyte proliferation, globin expression and blood counts in anemic (phlebotomized) baboons. Here is the method: Experiments were performed to determine if administration of the chemical compositions could induce fetal globin gene expression in an in vivo model similar to humans (S. P. Perrine et al., Brit. J. Haematol. 88:555-61, 1994). Briefly, chemicals were prepared as sterile pharmaceutical solutions in pH adjusted sterile water. A variety of chemical compositions were administered sequentially to some baboons. After administration of one compound, a wash-out period with no compound administration was maintained until reticulocytes returned to base line prior to administration of the next compound. This was done, at least partly, to compare the magnitude of response which occurred within the same individual animal to different compounds.
Briefly, juvenile female baboons (2 years old) were catheterized with arterial and venous catheters and phlebotomized gradually every day to maintain a moderate anemia of 7.0 to 7.5 grams hemoglobin/dl. Fetal reticulocytes, the newly produced red blood cells containing fetal globin, were assayed using a monoclonal antibody against fetal globin (HbF) as described by G. Dover et al. (Blood 67:735-38, 1986). Briefly, blood was stained with two antibodies, one specific for reticulocytes and another against fetal globin protein. The amount of antibody bound cells was determined by FACS analysis. Globin chain synthesis was assayed as described by J. B. Clegg et al. (J. Mol. Biol. 19:91-108, 1966). Briefly, reticulocytes were radio-labeled with ^3 H-leucine which was incorporated in equal proportions into actively synthesized globin chains. After incubation in leucine-free media, cells were washed, and globin proteins were separated and purified by column chromatography. Radioactivity incorporated into each peak is compared and the ratios of gamma to gamma plus beta globin calculated. Each animal served as its own control with baseline monitoring assays performed for 4-6 weeks before any drug was administered. Phlebotomy was continued daily, so that peripheral HbF levels in the animals were not considered to be accurate over the short treatment time-frames and were not monitored. Safety monitoring was performed by frequent physical examinations, quantitation of food eaten, activity and frequent chemistry and hematology monitoring. Complete blood counts were assayed before, during and after treatment. Results presented were not adjusted to account for the daily phlebotomy.

Series [2] has as its system fetal globin mRNA (human erythroleukemia cells). In words: Fetal globin mRNA in erythroleukemia cells (primer extension). It counts as cell-based. The procedure:
Compounds were tested for increased expression of the human globin genes in human erythroid cells. In addition, as the cell line being tested is a tumor cell line, the assay determines if differentiation, a growth inhibitory effect on cancer cells, is induced by the compounds tested. Human erythroleukemia cells were cultured in RPMI media with 10% fetal calf serum alone or with treatment with various compounds for 4 days. Globin MRNA was quantitated by primer extension analysis. Fetal globin mRNA was compared to the amount of fetal globin mRNA produced in untreated cells during the same culture period. The quantitation was expressed as a percent of alpha globin MRNA which was constant. Results are expressed proportional to α-globin mRNA (Table 3).

Series [3] relates to fetal globin (gamma globin). Nature of the series: Fetal globin expression in erythroid progenitor cells from cord blood. The series is classed as cell-based, human. The following applies: for Gamma/(Gamma + Beta): Exp. B, 12-13 days, untreated 25.4%, 27.5%. Here is the method: Compositions were tested for activity in inducing fetal globin expression and protein production in erythroid progenitor cells cultured from human cord blood and analyzed as described by S. P. Perrine et al. (Blood 74: 454-60, 1989). Briefly, mononuclear cells were cultured in IMDM with 30% fetal calf serum and 2 units erythropoietin per ml to induce erythroid differentiation. Colonies were harvested on day 12-13, incubated with radio-labelled (^3 H) leucine, and further incubated in leucine-free media, still in the presence of compounds, overnight. Globin composition in the erythroid cells was analyzed by laser densitometry of electrophoretically separated globin chains stained with Coomassie blue, and by autoradiography. Treated cells were incubated for 12-13 days (Table 2, Experiments A and B) or overnight (Table 2, Experiment C) in the presence of the indicated compounds and compared to untreated control cells cultured from the same human subject.

A further series relates to fetal globin production. The following applies: cited from earlier work.
Series [4] relates to proximal promoter of the gamma globin gene (K562 cells). In words: Gamma globin promoter-neomycin transfection (61 bp proximal promoter), G418-resistant colonies. The series is classed as cell-based, human. The following applies: 1 mM, 8 weeks in G418. Here is the method: Gamma globin promoter-neomycin transfection experiments were performed to determine if compounds act by inducing an increase in activity from the proximal promoter of the gamma globin gene. Constructs containing 61 bp of the proximal gamma globin promoter were linked to the reporter gene for neomycin phosphotransferase (NEO) and transfected into permissive K562 cells by electroporation. After 18 hours, transfected cells were passed at 10^3 cells per well into RPMI media containing G418 (neomycin), which kills all mammalian cells unless the gene for NEO is expressed. Phenoxyacetic acid and thiophenoxyacetic acid were added to some of the cells plated into the RPMI/G418 media at concentrations of 1 mM. Cultures were incubated for 8 weeks with media changes performed as needed. Colonies which survived and grew in the presence of G418 were scored and the number of such colonies was compared to those generated when the cells were plated into G418 media without the test compounds. […] There was a greater than 6-fold (>600%) increase in proportions of colonies surviving the presence of phenoxyacetic acid (6/24 wells) and a three-fold (300%) increase in survival in the presence of thiophenoxyacetic acid (3/24 wells).

The test system of series [5] is system A transport (K562 cells and nucleated erythroblasts from fetal liver). In words: Effects on system A amino acid transport (3H-MAIB uptake). It counts as cell-based, human. Here is the method:
Inhibition of nutrient uptake is undesirable for treatment of anemias. Methyl aminoisobutyric acid (MAIB) labeled with tritium (^3 H) is normally taken up by system A amino acid transport. Cold (unlabeled) compounds were added to cultures containing ^3 H-MAIB and incubated for 1 hour. Cells were harvested and the amount of ^3 H taken up by cells was quantitated by scintillation counting.

We go through ten molecules from patent US6011000A, “Compositions for the treatment of blood disorders” (priority 1995, dated 2000).

Like-named read-outs stand apart in the source and are kept apart here.

Take `O=C(O)CCCc1ccccc1` [4-phenyl butyrate]: in series [1], the “fetal globin expressing reticulocyte proliferation” value is reported as “decrease fetal globin expressing reticulocyte proliferation” and the “relative proportions of fetal globin per cell” value is recorded as “increase relative proportions of fetal globin per cell”.
As to `CCCC(=O)OCC(O)CO` (stereo not shown) [MB, monobutyrin], the “increase in fetal reticulocytes above basal levels” value with anemic baboon (500 to 2,000 mg/kg i.v. daily, 4 days) stood at 220%. Moreover, the Fetal reticulocytes in the series with anemic baboon (500 to 2,000 mg/kg i.v. daily, 4 days, from 12%) is recorded as 27%. Moreover, the “induction of fetal globin mRNA” value in series [2] is given as “significantly increased the induction of fetal globin MRNA”. In addition, the “Gamma Globin mRNA (increase)” value in series [2] (1.0 mM, 4 days) is reported as 26%. The same molecule displayed a Gamma/Alpha in series [2] (1.0 mM, 4 days, untreated 0.46) of 0.73.
Regarding `CC(CO)C(N)=O` (stereo not shown) [MHPP, 2 methyl-3-hydroxypropionamide], the results for the “Gamma/(Gamma + Beta)” value in series [3] (0.05 mM) and in series [3] (1.0 mM) were 29.8% and 24.0%, respectively. Besides, the “expression of fetal globin” value in series [3] (concentrations above 0.25 mM (FIG. 4)) was “decreased the expression of fetal globin”. The fetal globin expression result in series [3] (concentrations below 0.25 mM) is listed as “increased fetal globin expression”.
For `CC(=O)Oc1ccccc1` [Phenyl acetate], in series [1], the “fetal globin expressing reticulocyte proliferation” value was “decrease fetal globin expressing reticulocyte proliferation” and the “relative proportions of fetal globin per cell” value is listed as “increase relative proportions of fetal globin per cell”.
With `CCCC(=O)[O-].[Na+]` [sodium butyrate], the “stimulation of fetal globin production” value with fetal globin production is “effective in stimulating fetal globin production”.
On to `O=C(O)CSc1ccccc1` [thiophenoxyacetic acid], for which the “increase in proportions of colonies surviving” value in series [4] is listed as “three-fold”. Moreover, the colonies surviving in series [4] (none of 24 wells without compound) is reported as 3/24. For the same molecule, the activation at 1000 µM in series [4] (Homo sapiens, K562, 1344 h, read-out: increase in proportions of colonies surviving) was determined as 300%.
In the case of `CCCC(=O)OCC(COC(=O)CCC)OC(=O)CCC` [tributyrin], in the series with anemic baboon (500 to 750 mg/kg per day i.v., 3 days, from 0%), the Gamma globin expression entry is reported as “about 2.2 % of total non-alpha globin expression”. The molecule also came in with a Fetal reticulocytes with anemic baboon (500 to 750 mg/kg per day i.v., 3 days, from 10%) of 14%.
As for `CCC(N)C(=O)O` (stereo not drawn) [α-amino-n-butyric acid], in the series with fetal globin production, the “stimulation of fetal globin production” value was “effective in stimulating fetal globin production”.
In the case of `CC(=Cc1ccccc1)C(=O)O` [α-methyl cinnamic acid], the “system A (neutral) amino acid transport” value in series [5] is “do not significantly alter system A transport of amino acids”.
For `CC(Cc1ccccc1)C(=O)O` (stereo not drawn) [α-methyl hydrocinnamic acid], the “production of blood cell types” value with anemic baboon (baboons) is listed as “stimulated production of many different cell types”. Further, the “red blood cell count” value in the series on anemic baboon (first baboon, infusion 500-1,000 mg/kg, 5 days, from 2.28) is given as 3.53 10^6 red blood cells per microliter. Moreover, in the series on anemic baboon (first baboon, infusion 500-1,000 mg/kg, 5 days, from 4.1), the “white blood cell count” value is given as 11.5. Also, the “total number of reticulocytes” value with anemic baboon (first baboon, infusion 500-1,000 mg/kg, 5 days, from 5.6%) was determined as 11%. For the same molecule, in the series with anemic baboon (first baboon, infusion 500-1,000 mg/kg, 5 days, from 6.4), the “total hemoglobin after treatment” value is given as 7.9 grams/dl. Further, the “packed red blood cell volume” value in the series with anemic baboon (first baboon, infusion 500-1,000 mg/kg, 5 days, from 19.5%) was 31.2 % of total blood volume; in the series on anemic baboon (second baboon, 500-700 mg/kg, 5 days, from 14.5%) it was 20.2%. Moreover, the platelet count in the series on anemic baboon (first baboon, infusion 500-1,000 mg/kg, 5 days, from 26.7) is 46.8 10^4 cells/μl. The “rise in total hemoglobin” value in the series with anemic baboon (first baboon, infusion 500-1,000 mg/kg, 5 days, over 3 days) was 1.5 grams/dl; in the series with anemic baboon (second baboon, 500-700 mg/kg, 5 days), 1.4 grams. In addition, in the series on anemic baboon (second baboon, 500-700 mg/kg, 5 days, from 2.3×10^6), the “Red blood cell counts” value is recorded as 2.82×10^6. The same molecule returned a Total hemoglobin with anemic baboon (second baboon, 500-700 mg/kg, 5 days, from 4.6) of 6.0 g/dL. Also, the “White blood cell counts (maximum)” value in the series on anemic baboon (second baboon, 500-700 mg/kg, 5 days, from 8,700) is given as 14,300. In addition, the “platelet counts (high)” value in the series with anemic baboon (second baboon, 500-700 mg/kg, 5 days, from 328,000) is given as 486,000. For the same molecule, in the series with anemic baboon (second baboon, 500-700 mg/kg, after 5 days, from 4.0%), the “Total fetal globin synthesis” value stood at 10.8%. Moreover, the adverse effects result in the series on anemic baboon (third baboon, same dose, 5 days) is on record as “No adverse affects were observed”. Moreover, in the series with anemic baboon (third baboon, same dose, 5 days, from 0%), the “Fetal globin protein synthesis” value is on record as 6.2 % of non-alpha globin. For the same molecule, the “fetal hemoglobin producing reticulocytes” value with anemic baboon (third baboon, same dose, after 5 days (FIG. 8), from 0%) was found to be 10%. The “system A (neutral) amino acid transport” value in series [5] (1 hour, 3H-MAIB (FIG. 12)) is “caused no significant inhibition and actually increased uptake of nutrients into cells”.
